Experiment [1] has as its target T1, OccK1 (formerly OpdK) (Pseudomonas aeruginosa, UniProt Q9HUR5).
T1 construct: pB22, N-terminal hexa-histidine tag; expressed in E. coli BL21 omp8, total membrane vesicles; purified protein for crystals
T1 sequence (Q9HUR5 28-417): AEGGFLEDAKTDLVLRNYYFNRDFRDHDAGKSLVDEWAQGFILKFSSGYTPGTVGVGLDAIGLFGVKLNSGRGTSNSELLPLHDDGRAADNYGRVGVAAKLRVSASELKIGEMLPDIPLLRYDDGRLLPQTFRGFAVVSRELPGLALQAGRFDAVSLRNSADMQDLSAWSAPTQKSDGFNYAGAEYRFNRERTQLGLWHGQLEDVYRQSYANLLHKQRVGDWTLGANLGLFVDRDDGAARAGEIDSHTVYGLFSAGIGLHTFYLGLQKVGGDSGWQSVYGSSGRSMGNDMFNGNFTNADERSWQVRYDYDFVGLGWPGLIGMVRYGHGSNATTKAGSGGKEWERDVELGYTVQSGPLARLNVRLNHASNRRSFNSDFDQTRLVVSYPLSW
The experiment is described as follows: competition of radiolabelled uptake in total membrane vesicles. Format: biochemical. The note with it: vs 0.5 uM 3H-benzoate, 5 uM unlabelled compound, 10 mM HEPES pH 7.0, 25 C, 10 min. From the text:
competition of radiolabelled uptake in total membrane vesicles on OccK1 (formerly OpdK)

For experiment [2], the target named is T2, OccD2 (formerly OpdC) (Pseudomonas aeruginosa, UniProt Q9I6X0).
T2 construct: pB22, N-terminal hexa-histidine tag; expressed in E. coli BL21 omp8, total membrane vesicles
T2 sequence (Q9I6X0 23-444): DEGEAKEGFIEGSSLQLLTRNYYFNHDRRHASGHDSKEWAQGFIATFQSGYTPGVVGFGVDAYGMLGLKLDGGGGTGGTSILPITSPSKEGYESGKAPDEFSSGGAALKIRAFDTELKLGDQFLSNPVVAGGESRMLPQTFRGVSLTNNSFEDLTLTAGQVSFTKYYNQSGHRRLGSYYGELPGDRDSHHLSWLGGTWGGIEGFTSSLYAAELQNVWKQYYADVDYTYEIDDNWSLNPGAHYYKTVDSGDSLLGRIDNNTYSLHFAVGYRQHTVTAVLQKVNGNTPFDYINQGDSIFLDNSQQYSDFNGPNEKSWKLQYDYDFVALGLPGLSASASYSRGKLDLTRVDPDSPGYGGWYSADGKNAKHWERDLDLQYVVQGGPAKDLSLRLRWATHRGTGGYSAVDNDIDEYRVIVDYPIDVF
The experiment is described as follows: radiolabelled uptake in total membrane vesicles. It counts as biochemical. The note with it: 0.25 uM 14C-arginine, 15 min, 10 mM HEPES pH 7.0, 25 C; labelled compound.

Experiment [3] deals with T3, OccD3 (formerly OpdP) (Pseudomonas aeruginosa, UniProt Q9HVS0).
T3 construct: pB22, N-terminal hexa-histidine tag; expressed in E. coli BL21 omp8, total membrane vesicles
T3 sequence (Q9HVS0 26-484): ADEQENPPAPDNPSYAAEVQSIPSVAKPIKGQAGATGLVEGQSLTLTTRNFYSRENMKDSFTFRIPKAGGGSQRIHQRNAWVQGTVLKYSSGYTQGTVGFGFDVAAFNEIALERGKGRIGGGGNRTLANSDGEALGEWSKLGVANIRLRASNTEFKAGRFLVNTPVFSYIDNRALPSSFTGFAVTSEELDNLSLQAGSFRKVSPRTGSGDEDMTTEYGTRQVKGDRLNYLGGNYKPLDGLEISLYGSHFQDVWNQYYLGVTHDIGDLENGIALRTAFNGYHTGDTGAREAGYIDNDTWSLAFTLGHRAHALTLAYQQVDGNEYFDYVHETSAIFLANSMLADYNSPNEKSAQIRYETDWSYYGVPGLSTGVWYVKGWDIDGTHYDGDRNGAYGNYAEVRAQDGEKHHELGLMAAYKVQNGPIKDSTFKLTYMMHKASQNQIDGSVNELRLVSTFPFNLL
Put plainly: radiolabelled uptake in total membrane vesicles. It counts as biochemical. The note with it: 0.25 uM 14C-arginine, 15 min, 10 mM HEPES pH 7.0, 25 C; labelled compound.

For experiment [4], the target named is T4, OccD1 (formerly OprD) (Pseudomonas aeruginosa, UniProt P32722).
T4 construct: pB22, N-terminal hexa-histidine tag kept in vesicles; expressed in porin-deficient E. coli BL21 omp8; total membrane vesicles (purified protein for liposome swelling)
T4 sequence (P32722 24-443): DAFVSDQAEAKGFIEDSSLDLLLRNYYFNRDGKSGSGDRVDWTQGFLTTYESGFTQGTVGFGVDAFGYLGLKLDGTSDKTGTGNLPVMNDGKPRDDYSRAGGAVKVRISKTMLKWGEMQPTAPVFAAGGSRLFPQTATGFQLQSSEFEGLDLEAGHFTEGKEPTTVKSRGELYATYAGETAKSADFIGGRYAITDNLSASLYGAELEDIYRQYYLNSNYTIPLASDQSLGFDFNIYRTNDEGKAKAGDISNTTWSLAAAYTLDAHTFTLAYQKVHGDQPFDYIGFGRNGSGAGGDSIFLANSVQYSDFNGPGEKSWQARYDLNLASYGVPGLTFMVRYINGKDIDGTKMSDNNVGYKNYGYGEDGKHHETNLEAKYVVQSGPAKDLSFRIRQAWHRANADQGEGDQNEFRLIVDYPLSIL
Format: biochemical. The note with it: vs 0.25 uM 14C-arginine, 2.5 uM unlabelled compound, 10 mM HEPES pH 7.0, 25 C, 15 min. The text has this: competition of radiolabelled uptake in total membrane vesicles on OccD1 (formerly OprD)

In experiment [5] the target is T5, OccK2 (Pseudomonas aeruginosa, UniProt Q9I6P8).
T5 construct: gene PA0240; pB22, N-terminal hexa-histidine tag; expressed in E. coli BL21 omp8, total membrane vesicles
T5 sequence (Q9I6P8 25-421): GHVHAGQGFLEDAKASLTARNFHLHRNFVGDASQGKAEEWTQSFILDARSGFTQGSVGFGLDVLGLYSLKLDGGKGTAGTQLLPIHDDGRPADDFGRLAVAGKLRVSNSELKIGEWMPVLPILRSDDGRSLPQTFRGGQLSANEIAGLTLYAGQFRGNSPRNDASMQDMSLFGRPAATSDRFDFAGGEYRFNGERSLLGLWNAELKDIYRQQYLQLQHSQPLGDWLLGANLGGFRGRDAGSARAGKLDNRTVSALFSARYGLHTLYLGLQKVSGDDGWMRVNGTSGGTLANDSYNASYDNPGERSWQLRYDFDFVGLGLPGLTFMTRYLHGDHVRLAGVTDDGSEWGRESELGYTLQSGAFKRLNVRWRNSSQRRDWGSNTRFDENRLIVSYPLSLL
The experiment is described as follows: competition of radiolabelled uptake in total membrane vesicles. Format: biochemical. The note with it: vs 0.5 uM 3H-glucuronate, 5 uM unlabelled compound, 10 mM HEPES pH 7.0, 25 C, 10 min. The text has this:
competition of radiolabelled uptake in total membrane vesicles on OccK2

Experiment [6] has as its target T6, OccK3 (Pseudomonas aeruginosa, UniProt Q9I202).
T6 construct: gene opdO; pB22, N-terminal hexa-histidine tag; expressed in E. coli BL21 omp8, total membrane vesicles; purified protein for liposome swelling
T6 sequence (Q9I202 26-409): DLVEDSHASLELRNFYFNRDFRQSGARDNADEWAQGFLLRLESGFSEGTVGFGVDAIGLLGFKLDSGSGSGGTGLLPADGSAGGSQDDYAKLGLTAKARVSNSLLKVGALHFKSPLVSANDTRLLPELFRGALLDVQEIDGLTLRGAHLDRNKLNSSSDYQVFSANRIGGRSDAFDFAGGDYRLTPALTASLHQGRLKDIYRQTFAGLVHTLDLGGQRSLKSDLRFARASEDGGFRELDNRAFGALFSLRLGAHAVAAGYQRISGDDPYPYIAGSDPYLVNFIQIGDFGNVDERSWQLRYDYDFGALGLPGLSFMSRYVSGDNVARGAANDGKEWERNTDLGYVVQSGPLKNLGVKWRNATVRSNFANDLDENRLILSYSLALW
Put plainly: competition of pyroglutamate uptake in membrane vesicles; liposome swelling. It counts as biochemical. The note with it: 10-fold excess over radiolabelled pyroglutamate, pH 7.0; uptake confirmed by liposome swelling.

The target of experiment [7] is T4, OccD1 (formerly OprD). Put plainly: competition of arginine uptake in membrane vesicles; liposome swelling. The note with it: 10-fold excess over 0.25 uM 14C-arginine, pH 7.0, 25 C; uptake confirmed by liposome swelling. Format: biochemical.
Experiment [8] concerns the target T4, OccD1 (formerly OprD). Put plainly: competition of arginine uptake in membrane vesicles. Format: biochemical. The note with it: 10-fold excess over 0.25 uM 14C-arginine, pH 7.0, 25 C.
Experiment [9] concerns the target T7, OccK7 (Pseudomonas aeruginosa, UniProt Q9I4U9).
T7 construct: gene PA1025; pB22, N-terminal hexa-histidine tag; expressed in E. coli BL21 omp8, total membrane vesicles
T7 sequence (Q9I4U9 23-416): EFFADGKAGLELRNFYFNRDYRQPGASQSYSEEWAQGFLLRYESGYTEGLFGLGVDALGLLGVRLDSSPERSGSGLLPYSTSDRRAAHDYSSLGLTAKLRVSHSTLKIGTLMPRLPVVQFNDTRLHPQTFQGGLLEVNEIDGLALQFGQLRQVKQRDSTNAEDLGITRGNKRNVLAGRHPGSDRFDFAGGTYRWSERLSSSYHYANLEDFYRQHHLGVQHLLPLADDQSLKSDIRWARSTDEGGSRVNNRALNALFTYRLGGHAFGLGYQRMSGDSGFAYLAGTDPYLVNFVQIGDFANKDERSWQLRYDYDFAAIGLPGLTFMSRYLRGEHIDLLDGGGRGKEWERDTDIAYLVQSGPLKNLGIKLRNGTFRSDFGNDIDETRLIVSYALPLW
The experiment is described as follows: competition of benzoate uptake in membrane vesicles. It counts as biochemical. The note with it: 10-fold excess over radiolabelled benzoate, pH 7.0.

For experiment [10], the target named is T8, OccK4 (Pseudomonas aeruginosa, UniProt Q9HWP4).
T8 construct: gene PA4137; pB22, N-terminal hexa-histidine tag; expressed in E. coli BL21 omp8, total membrane vesicles
T8 sequence (Q9HWP4 entry or part of it): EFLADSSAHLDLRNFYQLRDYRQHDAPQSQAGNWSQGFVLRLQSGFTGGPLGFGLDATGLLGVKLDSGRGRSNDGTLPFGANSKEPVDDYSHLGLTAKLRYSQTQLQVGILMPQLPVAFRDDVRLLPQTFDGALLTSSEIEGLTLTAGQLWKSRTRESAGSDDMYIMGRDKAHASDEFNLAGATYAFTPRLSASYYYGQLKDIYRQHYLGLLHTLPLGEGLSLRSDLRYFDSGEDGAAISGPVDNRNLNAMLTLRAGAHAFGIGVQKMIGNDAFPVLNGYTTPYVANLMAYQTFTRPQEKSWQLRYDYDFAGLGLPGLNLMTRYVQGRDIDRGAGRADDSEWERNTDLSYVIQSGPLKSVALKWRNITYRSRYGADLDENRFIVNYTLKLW
The experiment is described as follows: radiolabelled uptake in total membrane vesicles. Format: biochemical. The note with it: 10 uM 14C-phenylacetate, 45 min; very low specific activity; labelled compound.

The target in experiment [11] is T6, OccK3. The experiment is described as follows: radiolabelled uptake in total membrane vesicles. Format: biochemical. The note with it: 0.5 uM 3H-pyroglutamate, 15 min, 10 mM HEPES pH 7.0, 25 C; labelled compound.
The target of experiment [12] is OccD1 (P. aeruginosa) (UniProt P32722).
Sequence of OccD1 (P. aeruginosa) (P32722 24-443): as the sequence (P32722 24-443) above

Read-outs that look alike come from different tables or passages of the source.

Consider `O=C(O)c1ccc([N+](=O)[O-])cc1` [4-nitrobenzoate], for which the OccK1 in [1] turned out to be 16±3%. Turning to `N=C(N)NCCC[C@H](N)C(=O)O` [Arginine], the “radiolabelled uptake in total membrane vesicles” value in experiment [2] is “OccD2 and OccD3, while efficient in arginine uptake”; in experiment [3], “The efficient arginine uptake mediated by OccD3 is noteworthy”. The compound further displayed an OccD1 in [4] (self-competition) of 2±1%. On to `N[C@@H](Cc1cnc[nH]1)C(=O)O` [Histidine], for which the OccD1 in experiment [4] is listed as 12±2%. `NCCCC[C@H](N)C(=O)O` [Lysine] displayed an OccD1 in [4] of 3±1%. The same measure, in the same setting: with `NCCC[C@H](N)C(=O)O` [Ornithine] the figure was 1±2%. On to `O=C(O)c1ccccc1` [benzoate], for which the OccK1 in experiment [1] (self-competition, error printed as '+') is listed as 1+3. In [5], this compound yielded an OccK2 of 20±6%. For `CCCCCC(=O)O` [caproate], the OccK1 in experiment [1] came to 20±5%.

For `CO/N=C(\C(=O)N[C@@H]1C(=O)N2C(C(=O)O)=C(COC(C)=O)CS[C@H]12)c1csc(N)n1` [cefotaxime], the “% uptake remaining in 10-fold excess” value in experiment [6] is listed as “OccK3-mediated transport is affected only with the cephalosporin cefotaxime”. Turning to `O=C(O)[C@H]1OC(O)[C@H](O)[C@@H](O)[C@@H]1O` (some centres unmarked) [glucuronate], the “% radiolabelled uptake remaining” value in [5] (self-competition) stood at 3±3%.

For `C[C@@H](O)[C@H]1C(=O)N2C(C(=O)O)=C(SCCN=CN)C[C@H]12` [imipenem], the “% uptake remaining in 10-fold excess” value in experiment [7] is “For OccD1, inhibition of arginine uptake is caused only by imipenem and meropenem”. With `C[C@@H](O)[C@H]1C(=O)N2C(C(=O)O)=C(S[C@@H]3CN[C@H](C(=O)N(C)C)C3)[C@H](C)[C@H]12` [meropenem], the “% uptake remaining in 10-fold excess” value is “For OccD1, inhibition of arginine uptake is caused only by imipenem and meropenem” in experiment [8]; “OccK7-mediated transport is lowered very efficiently by meropenem” in [9]. Turning to `O=C(O)Cc1ccccc1` [phenylacetate], the “radiolabelled uptake in total membrane vesicles” value in experiment [10] is recorded as “OccK4 was indeed the most efficient phenylacetate uptake channel of the proteins tested”. In the case of `O=C1CC[C@@H](C(=O)O)N1` [pyroglutamate], the OccK1 in [1] was 15±1%. Moreover, the “radiolabelled uptake in total membrane vesicles” value in experiment [11] is “the channel that is most efficient in pyroglutamate uptake (OccK3)”. The compound also displayed an OccK2 in experiment [5] of 25±2%.

On to Arg-Arg dipeptide, for which the uptake of radiolabeled arginine by OccD1 in E. coli BL21 omp8 total membrane vesicles in the presence of a 10-fold excess of the unlabeled compound, as a percentage of uptake without it in experiment [12] worked out at 40%.
